Test results from article PMC8765437, “GSK3640254 Is a Novel HIV-1 Maturation Inhibitor with an Optimized Virology Profile” (Antimicrobial Agents and Chemotherapy, 2022).

Assays:
[1] = system: NLRepRlucP373S-based viruses; assay: microbe, parasite or virus in culture; assay type: cell-based, HIV-1; conditions: for EC50 / EC90: 10% FBS + 40% HS + 27 mg/mL of HSA
[2] = Human serum protein binding, ultracentrifugation assay; assay type: in vitro ADME
[3] = Cytotoxicity in MT-2 cells (MTS, 4-day incubation); assay type: cell-based; conditions: human, read-out: half-maximal cytotoxic concentration (CC50)
Description: The assay was performed in a phenol red-free medium at an initial cell density of 10,000 per well in a 96-well plate format. Cell viability was determined using a redox dye assay [3-(4,5-dimethylthiazol-2-yl)-5-(3-carboxymethoxyphenyl)-2-(4-sulfophenyl)-2H-tetrazolium, inner salt (MTS); Promega, Madison, WI] according to the manufacturer’s protocol. Half-maximal cytotoxic concentration values were calculated by fitting to a 4-parameter logistic formula y = A + {[B − A]/1 + [(C/x)^d]}, where A and B are minimal and maximal percent inhibition, respectively, C is the EC50, d is the Hill slope, and x represents compound concentrations.

[4] = system: p25 cleavage in HIV-1 Gag VLPs; assay: Gag p25 cleavage assay (delipidated VLPs, HIV-1 protease, LC-MS); assay type: biochemical; conditions: WT and ΔV370 VLPs; 3 μM compound
Description: (§1) Virus-like particles of 3 genotypes were constructed and tested. In addition to WT VLP, a VLP with V370 deleted (ΔV370; a genotype characteristic of subtype C viruses) and one with the known resistance substitution A364V were analyzed. […] A364V is a substitution adjacent to the p25/p24 cleavage site (L363/A364), and in this assay (Fig. 3C), neither MI inhibited production of p24 in the presence of HIV-1 protease.
(§2) As previously described ([22]), VLPs (∼100 ng) were diluted (1:10) in 10 μL of VLP buffer (50 mM MES [pH 6.0], 100 mM NaCl, 2 mM EDTA, and 2 mM dithiothreitol) supplemented with 0.06% Triton X-100 and incubated at room temperature for 10 to 30 min to remove lipid bilayers. […] Samples (1 μL) were taken at 0-, 0.5-, 2-, and 4-h time points and underwent trypsin digestion. […] Peptide samples were then analyzed by liquid chromatography with mass spectrometry using a nanoAcquity ultraperformance liquid chromatography system (Waters Corporation, Milford, MA) interfaced with an LTQ XL Orbitrap mass spectrometer (Thermo Fisher Scientific, Waltham, MA). […]
(§3) Signals for SP1 peptides were normalized to an internal protease fragment at the C-terminal end of Gag, and data were analyzed using Thermo Xcalibur processing software 3.0.63 and Thermo Xcalibur Quanbrowser software 3.0.63 (Thermo Fisher Scientific) as described previously ([23]).

[5] = system: T1, p25 cleavage in HIV-1 Gag VLPs; assay: as above; assay type: biochemical; conditions: A364V VLP; 3 μM compound
T1 construct: made in house
Description: as §1, §2, §3

[6] = system: NL4-3P373S viruses (WT and V370A); assay: Resistance selection by serial passage in increasing GSK’254 concentrations; assay type: cell-based, HIV-1; conditions: starting concentration 2 nM GSK’254
Description: NL4-3GagP373S (WT) and the SDM NL4-3 GagP373SV370A (V370A) were used to start the selections. These variants were selected as parent virus based on common WT and V370A expression in HIV-1 subtypes (47% WT and ∼36% V370A as indicated by the LANL HIV sequence database (https://www.hiv.lanl.gov/content/index). Each selection was performed in triplicate, starting with 2 × 10^6 MT-2 cells infected with each virus at an MOI of 0.005 (50% tissue culture infectious dose determined by CPE and cultured in 2 × 10^5 cells/mL in compound-containing medium). Each passage was terminated at ∼100% CPE. To passage virus, the cultures were centrifuged, and 25 μL of viral supernatants was transferred into 10 mL of a fresh cell culture in the presence of a 2-fold-increased compound concentration.

[7] = Estimation of minimum plasma concentration required for clinical efficacy; design: species or system human; conditions: multiples higher than PBA EC90 of the vast majority of HIV-1 isolates
From the text: These viruses were chosen to be representative of the population of Gag genes as a whole, including known polymorphism-containing viruses with reduced susceptibility to GSK’795, as well as SDM viruses with multiple changes that had previously been identified as relevant for susceptibility to earlier MIs ([7], [11]).

[8] = in vivo, cited from earlier work
[9] = system: HIV-1; design: method as in PMID 30352054; conditions: in combination with emtricitabine and tenofovir disoproxil fumarate; cited from earlier work
[10] = Human immunodeficiency virus 1, HS27, V370A
[11] = Human immunodeficiency virus 1, HS27, Wild type
[12] = Human immunodeficiency virus 1, HS27, ΔV370

SMILES | EC50 [1, 10] [nM] | EC90 [1, 10] [nM] | EC50 [1, 11] [nM] | EC90 [1, 11] [nM] | EC50 [1, 12] [nM] | EC90 [1, 12] [nM] | average potency decrease in human serum ([1]; average of WT, V370A and ΔV370 viruses) [fold] | fraction unbound [2] | CC50 at 4 days [3] [nM] | inhibition of p25 cleavage [4] | inhibition of p25 cleavage [5] | average time until sufficient viral titer to permit passage 1 [6] [days] | estimated Cmin (target human steady-state serum concentration) [7] [nM] | safety and tolerability ([8]; po) | gastrointestinal intolerability [8] | gastrointestinal adverse events [9]
C=C(C)[C@@H]1CC[C@]2(NCCN3CCS(=O)(=O)CC3)CC[C@]3(C)[C@H](CC[C@@H]4[C@@]5(C)CC=C(C6=CC[C@@](CF)(C(=O)O)CC6)C(C)(C)[C@@H]5CC[C@]43C)[C@@H]12 [GSK’254] | 9.1 | 42.2 | 12.3 | 26.1 | 38.2 | 195 | 7.9 | 0.14 | 13000 ± 6000 | significantly better inhibition of p25 cleavage than GSK’795 | failed to impact cleavage | 24 | 150 | acceptable safety and tolerability | only mild gastrointestinal intolerability | –
C=C(C)[C@@H]1CC[C@]2(NCCN3CCS(=O)(=O)CC3)CC[C@]3(C)[C@H](CC[C@@H]4[C@@]5(C)CC=C(c6ccc(C(=O)O)cc6)C(C)(C)[C@@H]5CC[C@]43C)[C@@H]12 [GSK’795, reference compound] | – | – | – | – | – | – | – | – | – | – | – | – | – | – | – | a number of gastrointestinal adverse events
